Results taken from patent US20260315372A1, “INJECTABLE PHARMACEUTICAL FORMULATIONS” (priority 2023, published 2026).
Read-outs that look alike come from different tables or passages of the source.

Key:
[1] = in vivo; set-up: species or system male Beagle dogs; conditions: dog
Excerpt: A: Proof of Concept—Pharmacokinetics (PK) of DMT-d10 in Male Beagle Dogs Following Subcutaneous Administration in Saline or Sodium Hyaluronate
The objective of this study was to determine if a 1% (w/v) sodium hyaluronate formulation could modify the SC release of DMT-d10 compared to 0.9% (w/v) saline formulation.
Animals. Three, non-naïve, male Beagle dogs aged ca 2-5 years and weighing 10-15 kg at dosing were supplied by Charles River for use on this study and were bred for use in scientific procedures. The animal work in this study was conducted under the UK Home Office Project License No. PPL PP9376768, Pharmacokinetics of Pharmaceuticals. This was a cross-over design study to reduce the number of dogs in use and as well as decrease interindividual variability.
Housing. Animals were uniquely identified by microchip and tattoo in this study. During pre-trial and on-study periods, the animals were group housed in caging appropriate to the species. The animals were housed singly for up to 4 h per day and during this time had access to their daily ration of diet.
IPS 5007 diet was provided as a daily ration throughout the study. A 350 g ration of feed per dog was provided once daily, except during designated procedures. On the morning of dosing (pre-dose), the animals were deprived from their daily food allowance until 2 h post dose. Mains quality tap water was available ad libitum. Details of diet and water are maintained at the test facility.
(§1) Prior to acceptance for use on study, animals were subject to an examination and the results found to be satisfactory. All animals were weighed prior to each dose administration and the bodyweights recorded. Animals were checked regularly throughout the duration of the study. Any clinical signs were closely monitored and recorded.
Test Items. DMT-d10 fumarate was formulated as a solution in 0.9% (w/v) saline, pH 5.5-6 (control) or in 1% (w/v, nominal) sodium hyaluronate in water for injection (WFI) (Formulation 28) at a free base concentration of 0.4 mg/mL (nominal) for SC injection. Each test item was prepared on the morning of dose administration and stored at ambient temperature, protected from light, until dosing.
Control (0.9% w/v saline): On the day prior to dosing, DMT-d10 fumarate was removed from storage (frozen, in a freezer set to maintain ≤−20° C., protected from light) and allowed to equilibrate to room temperature. Using a precision analytical balance, 9.7 mg of DMT-d10 fumarate was weighed into a 20 mL headspace vial which was pre-calibrated to a final volume of 15 mL with a magnetic stir bar inside. The weighed API was returned to storage. On the morning of dosing, the weighed API was removed from storage and allowed to equilibrate to room temperature. 13.55 mL of vehicle (0.9% w/v saline) was added to the vial (equivalent to 90% of final volume) and set to magnetically stir for ca 35 minutes. Using a calibrated pH meter, the solution pH was measured. […] The solution was made to final volume of 15 mL, using the pre-calibrated line, with 0.9% w/v saline. The final pH was recorded as 5.53. The solution was then filtered using a […] PVDF syringe filter in the laminar air flow cabinet (LAFC). The visual appearance of the solution was recorded as a clear, colorless, homogenous solution. […] The control solution was protected from light at all times.
Formulation 28: On the morning of dosing, DMT-d10 fumarate was removed from storage (frozen, in a freezer set to maintain ≤−20° C., protected from light) and allowed to equilibrate to room temperature. Using a precision analytical balance, 11.02 mg of DMT-d10 fumarate was weighed into a 20 mL headspace vial containing a magnetic stir bar. 3.5 mL of WFI was added to the vial and set to stir, making a stock solution with a free base concentration of 2 mg/mL (nominal) DMT-d10. Once homogenous, 2 mL of the stock solution was dispensed into a vial containing 8 mL of 1.25% (w/v, nominal) sodium hyaluronate and vortex mixed until homogenous. […]

[2] = set-up: species or system male Beagle dogs; conditions: dog, in vivo, sc
Procedure: as §1
Subcutaneous injections. The target dose was 0.1 mg/kg, free base at a dose concentration of 0.4 mg/mL. Appropriate volumes of dose were calculated per each animal based on real animal bodyweights and a target dose volume of 0.25 mL/kg. The volumes were pulled into plastic Troge 2.5 mL syringes. Animals were identified by microchip and tattoo. […]
Subcutaneous injections. […] Appropriate volumes of dose were calculated per each animal based on real animal bodyweights and a target dose volume of 0.25 mL/kg. […]
(§2) Subcutaneous injections. […] Appropriate volumes of dose were calculated per each animal based on real animal bodyweights and a target dose volume of 0.05 mL/kg or 0.25 mL/kg. […]
Subcutaneous injections. DMT+DMT-d10 were co-dosed (via Formulation 35) at 0.5 mg/kg/analyte, total dose of 1.0 mg/kg (free base), each at a dose concentration of 10 mg/mL (nominal), total dose concentration of 20 mg/mL (nominal) and a dose volume of 0.05 mL/kg calculated per each animal based on real animal bodyweights. […]

[3] = dog, in vivo, sc
[4] = set-up: species or system male Beagle dogs; conditions: dog, in vivo, sc, 1 mg/kg
Procedure: D: Dose Concentration and Dose Volume—Pharmacokinetics of DMT-d10 in Male Beagle Dogs Following Subcutaneous Administration at 1 mg/kg Formulated in Hyaluronic Acid Concentrations at Higher Dosing Solution Concentrations and Lower Dosing Volume
The objective of this study was to determine the effect of increasing the dosing solution concentration of DMT-d10 and decreasing the dose volume on the SC release of DMT-d10 into the systemic circulation. This study was conducted using the same CRO, housing, and materials as described above in part A. All conditions described in part A pertain to this study with the exceptions noted below.
Test Items. […]
[…]. Once homogeneous, the density was measured to be 1.000 g/cm^3. […] The visual appearance was recorded as a clear/yellowish homogenous solution at this stage. The pH was measured using a calibrated pH meter and recorded to be 3.24. […] The density was measured to be 1.012 g/cm^3. […]
[…]. The density of the resultant 0.8% (w/v, nominal) sodium hyaluronate solution was recorded to be 1.002 g/cm^3. […] The final visual appearance of the formulation was recorded as a clear, colorless, homogenous solution.
as §2

[5] = in vivo; conditions: dog, sc, 0.5 mg/kg; for Vd/F: Vz/F (mean)
[6] = cited from earlier work
[7] = tested on: 5-HT2C; conditions: cited from earlier work
[8] = in vivo; cited from earlier work
[9] = tested on: 5-hydroxytryptamine-(5-HT)1A; conditions: cited from earlier work
[10] = tested on: sigma-1 receptor; conditions: cited from earlier work
[11] = tested on: 5-HT2A receptor; conditions: cited from earlier work
[12] = tested on: 5-HT2A; conditions: cited from earlier work
[13] = tested on: serotonin transporter (SERT); conditions: cited from earlier work
[14] = tested on: trace amine-associated receptors (TAARs); conditions: cited from earlier work

[2H]C([2H])([2H])N(C([2H])([2H])[2H])C([2H])([2H])C([2H])([2H])c1c[nH]c2ccccc12 [DMT-d10, 2-(1H-indol-3-yl)-N,N-bis(methyl-d3)ethan-1-amine-1,1,2,2-d4]
dose proportionality of Cmax and AUCinf [1]: increased in a dose proportional manner | plasma DMT-d10 concentrations quantifiable up to [1]: up to 4 hours | MRT inf ([1]; sc): ~90 min | Tmax ([1]; sc): 30 to 45 min | half-life ([1]; sc): ~54 min | plasma DMT-d10 concentrations quantifiable up to ([1]; sc): up to 4 hours | adverse reactions to the administration [2]: No adverse reactions | clinical signs post-dose [2]: Mild, transient clinical signs | decrease of apparent clearance (Cl/F) by deuteration [3]: 2.2 × | decrease of apparent volume of distribution (Vz/F) by deuteration [3]: 1.6 × | increase of AUCinf by deuteration [3]: 2.2 × | increase of Cmax by deuteration [3]: 1.3 × | increase of MRTinf by deuteration [3]: 1.4 × | increase of t1/2 by deuteration [3]: 1.4 × | plasma concentrations quantifiable to [3]: ≤ 4 h | Vz/F (mean) ([3]; 0.5 mg/kg): 4.72 L/kg | plasma DMT-d10 concentrations quantifiable up to [4]: up to 4 hours | AUC(0-inf) [5]: 109 ng·h/mL | CL/F [5]: 77.5 mL/min/kg | Cmax [5]: 75.6 ng/mL | MRT inf [5]: 73.8 min | Tmax [5]: 30 min | half-life [5]: 43.3 min | Vd/F [5]: 4.73 L/kg

COc1ccc2[nH]cc(CCN(C)C)c2c1 [Formulation 5-MeO-DMT, 5-methoxy-N,N-dimethyltryptamine]
oral bioavailability ([6]; oral): lacks oral bioavailability

CN(C)CCc1c[nH]c2ccccc12 [DMT, 2-(1H-indol-3-yl)-N,N-dimethylethan-1-amine]
binding to 5-HT2C [7]: binds with affinity | therapeutically relevant psychedelic dose [8]: ≥ 70 mg | binding to 5-HT1A [9]: binds with affinity | binding to sigma-1 receptor [10]: binds to other receptors | plasma concentrations quantifiable to [3]: ≤ 2 h | agonism at the 5-HT2A receptor [11]: potent agonist | oral activity ([6]; in vivo, po): not orally active | binding to 5-HT2A [12]: binds with affinity | binding to SERT [13]: binds with affinity | AUC(0-inf) [5]: 48.7 ng·h/mL | CL/F [5]: 173 mL/min/kg | Cmax [5]: 58.1 ng/mL | MRT inf [5]: 52 min | Tmax [5]: 30 min | half-life [5]: 32 min | Vd/F [5]: 7.59 L/kg | binding to TAARs [14]: binds to other receptors
